In one test the test system is GSTP1. Description: Western blot to detect GSTP1 protein in LNCaP cells. The class given is cell-based, human. The conditions noted are these: LNCaP cells exposed 24 hrs. As for the experimental part: Western blot to detect GSTP1 protein (FIG. 1): […] The cells were harvested, washed and total cellular proteins were extracted as described previously (Wang, […], et al. […] Cancer Res 61(20): 7544-51, 2001). Fifty μg cellular extracts were separated on a SDS-PAGE, electro-transferred to nitrocellulose filters, and immunoblotted initially with antibodies against GSTP1. The same membranes were stripped and re-probed with β-actin for loading control. The result was recorded by ECL films.

The test system of the next test is Sp1. Nature of the test: Western blot to detect Sp1 in LNCaP cells. It counts as cell-based, human. The conditions noted are these: 24 hrs. How it is done:
(§1) The cells were harvested, washed and total cellular proteins were extracted as described previously (as Example 2). Fifty μg proteins were then subjected to electrophoresis in SDS-PAGE, electro-transferred to nitrocellulose filters, and immunoblotted initially with antibodies against AR, Sp1, and PSA. The same membranes were stripped and re-probed with β-actin for loading control. The result was recorded by ECL films.
For orientation: A western blot detects proteins with antibodies after separation by electrophoresis.

In another test the test system is PSA. Description: Western blot to detect PSA in LNCaP cells. The class given is cell-based, human. The conditions noted are these: 24 hrs. As for the experimental part: as §1
Test [1] concerns human prostate cancer cell line LNCaP. Description: MTT and SRB cell growth assay, LNCaP. The class given is cell-based. The conditions noted are these: LNCaP; for IC50: Homo sapiens, MTT and SRB, read-out: IC50, growth inhibition. How it is done: MTT and SRB method as described in the reference (Kreis, Budman et al. 1997). Briefly, human prostate cancer cells grown exponentially were aliquoted into 96-well plates at a density of 5000 cells/200 μl per well. Twenty-four hrs after the incubation, the cells were exposed for three or seven days to serial dilutions of indicated isothiocyanate. After the incubation, 100 μl of the medium was removed from each of the wells and 50 μl solution of 3-(4,5-dimethyl-thiazol-2-yl)-2,5-diphenyltetrazolium bromide (MTT) was added, the cells were incubated for an additional 4 hrs and then 200 μl of 0.04 N HCl-isopropanol was added to each well to dissolve the black formazan precipitates. The absorbance was measured at wavelength 540 nm. For SRB method, remove the medium after 72 hrs. The cells on 96-well dishes were fixed with 10% trichloride acetic acid for 1 hr, air-dried for 24 hrs. The cells were then stained with 50 μl of SRB (sulforhodamine B) for […]. After extensive washes with 1% acetic acid for 5 times, air-dried, the purple protein-SRB complex was dissolved in 200 μl 10 mM Tris-HCl buffer (pH 10.0), and the absorbance was measured at the wavelength of 540 and 630 nm. The percent of cell survival (T/C%) were calculated based on the results of test groups to that of the control group. The semi-exponential curves of the percent of cell survival (T/C%) to the drug concentrations (FIG. 8) and IC50 were obtained by using Sigma-plot program.

The test system of the next test is transcription factor Sp1. Nature of the test: Sp1-luc luciferase activity assay in transfected LNCaP AD cells. The class given is cell-based, human. The conditions noted are these: 24 hrs. The text has this:
The Sp1-luc and mtSp1-luc contain three tandem repeats of consensus Sp1 sites driving the luciferase gene and its mutant. […] Effectene transfection reagent and luciferase assay kit were acquired from Qiagen (Valencia, Calif., USA) and Promega (Madison, Wis., USA). Reagents for protein electrophoresis were purchased from Bio-Rad company (USA). The other chemicals were purchased from Sigma (St. Louis, Mo.) otherwise as indicated. […] (Gao, M., Ossowski, L., and Ferrari, A. C. Activation of Rb and decline in androgen receptor protein precede retinoic acid-induced apoptosis in androgen-dependent LNCaP cells and their androgen-independent derivative. J Cell Physiol, 179: 336-346, 1999). The AD and AI cells were maintained in RPMI-1640 with 10% fetal bovine serum (FBS) and charcoal stripped fetal bovine serum, penicillin-streptomycin for incubation at 5% CO2 and 37° C. respectively. […] After incubation for 24 hrs at 5% CO2 and 37° C., the cells were transfected with 1 μg/dish of SP1-luciferase gene (Sp1-luc), or its mutant mtSp1-luc using Effectene (Qiagen, Valencia, Calif.) as the transfection reagent. […] The cells were collected, washed, lysed, and the lysates were used for luciferase activity assay using Promega luciferase assay system.

Another test concerns LNCaP AD. Nature of the test: MTT growth inhibition, hormone dependent LNCaP AD. The class given is cell-based. The conditions noted are these: Homo sapiens, 168 h; LNCaP AD, seven days, MTT; read-out: IC50, growth inhibition. The text has this: (§2) The human prostate cancer cell line LNCaP AD was purchased from the American Type Culture Collection. LNCaP AI cell line was derived from LNCaP cells using a method described previously by Gao et al. (Gao, M., Ossowski, L., and Ferrari, A. C. Activation of Rb and decline in androgen receptor protein precede retinoic acid-induced apoptosis in androgen-dependent LNCaP cells and their androgen-independent derivative. J Cell Physiol, 179: 336-346, 1999). The AD and AI cells were maintained in RPMI-1640 with 10% fetal bovine serum (FBS) and charcoal stripped fetal bovine serum, penicillin-streptomycin for incubation at 5% CO2 and 37° C. respectively.
(§3) MTT: MTT and SRB method were used to determine the effects of various isothiocyanates on cell growth as described previously (Kreis, Budman et al, 1997). Briefly, human prostate cancer cell line LNCaP grown exponentially were aliquoted into 96-well plates at a density of 2500 cells/200 μl per well. Twenty-four hrs after the incubation, the cells were exposed for seven days to serial dilutions of indicated isothiocyanate or paclitaxel. […] The absorbance was measured at wavelength 540 nm. The percent of cell survival (T/C%) were calculated based on the results of test groups to that of the control group. […]

Another test has as its system LNCaP AI. Description: MTT growth inhibition, hormone independent LNCaP AI. It counts as cell-based. The conditions noted are these: Homo sapiens, 168 h; LNCaP AI, seven days, MTT; read-out: IC50, growth inhibition.
Text: as §2, §3

The structures appear in SMILES notation.

With `C=CCN=C=S` [AITC, allyl isothiocyanate], the “expression of GSTP1 (Western blot)” value in the test on GSTP1 is on record as “effectively induce”. Further, the “expression of Sp1 (Western blot)” value in the test on Sp1 is reported as “minimal activities”. Besides, the “expression of PSA (Western blot)” value in the test on PSA was “minimal activities”. Also, the “Percent of Cell Survival (T/C %)” value in test [1] (0.0390 μM) came to 98.84%; in test [1] (0.0780 μM), 98.92%; in test [1] (0.1562 μM), 98.26%; in test [1] (0.3125 μM), 98.55%; in test [1] (0.6250 μM), 97.10%; in test [1] (1.2500 μM), 99.49%. Also, the “Percent of Cell Survival (T/C %)” value amounted to 83.95% in test [1] (2.5000 μM), 47.60% in test [1] (5.0000 μM), 41.01% in test [1] (10.0000 μM) and 38.69% in test [1] (20.0000 μM). Further, the IC50 in test [1] is around 10000 nM.
Take `S=C=NCc1ccccc1` [BITC, benzyl isothiocyanate]: in the test on GSTP1, the “expression of GSTP1 (Western blot)” value is “effectively induce”. For the same compound, the “expression of Sp1 (Western blot)” value with Sp1 is “significantly inhibited”. In the test on PSA, the “expression of PSA (Western blot)” value is on record as “significantly inhibited”. The “Percent of Cell Survival (T/C %)” value in test [1] (0.0390 μM) is 94.09%; in test [1] (0.0780 μM) it was 95.64%; in test [1] (0.1562 μM), 97.91%; in test [1] (0.3125 μM), 95.82%; in test [1] (0.6250 μM) it was 71.25%; in test [1] (1.2500 μM) it was 27.95%. For the same compound, the “Percent of Cell Survival (T/C %)” value in test [1] (2.5000 μM) is listed as 14.83%; in test [1] (5.0000 μM), 5.07%; in test [1] (10.0000 μM) it was 0.88%; in test [1] (20.0000 μM) it was 0.94%. In test [1], the IC50 lay within 800 to 1500 nM.
For `O=S(=O)(O)c1ccc(N=C=S)cc1` [SPITC, 4-sulfophenylisothiocyanate], in the test on GSTP1, the “expression of GSTP1 (Western blot)” value is “effectively induce”. Besides, the “expression of Sp1 (Western blot)” value with Sp1 is “no effect”. Besides, the “expression of PSA (Western blot)” value with PSA is “no effect”. Besides, the “Percent of Cell Survival (T/C %)” value in test [1] (0.0390 μM) amounted to 99.54%; in test [1] (0.0780 μM), 101.43%; in test [1] (0.1562 μM), 101.43%; in test [1] (0.3125 μM), 99.66%; in test [1] (0.6250 μM), 98.26%; in test [1] (1.2500 μM), 101.56%. The “Percent of Cell Survival (T/C %)” value was found to be 104.37% in test [1] (2.5000 μM), 100.60% in test [1] (5.0000 μM), 101.33% in test [1] (10.0000 μM) and 99.88% in test [1] (20.0000 μM).
For the compound `CC(/C=C/C(=O)NO)=C\[C@@H](C)C(=O)c1ccc(N(C)C)cc1` [TSA, trichostatin A, reference compound], in the test with transcription factor Sp1, the “luciferase activity of Sp1-luc transfected gene” value is on record as “significantly stimulated”.
For `CC(=O)O[C@H]1C(=O)[C@@]2(C)[C@H]([C@H](OC(=O)c3ccccc3)[C@]3(O)C[C@H](OC(=O)[C@H](O)[C@@H](NC(=O)c4ccccc4)c4ccccc4)C(C)=C1C3(C)C)[C@]1(OC(C)=O)CO[C@@H]1C[C@@H]2O` [paclitaxel, reference compound], the IC50 with LNCaP AD is 0.01 nM; in the test with LNCaP AI, 0.6 nM.

As a reminder, the IC50 is the concentration needed to halve the response being measured.

Values taken from US8410170B2, “Use of isothiocyanates compounds in treating prostatic diseases and skin cancer” (Wuxi JC Pharmaceutical Technology Co., Ltd., priority 2005, dated 2013).
